According to paper PMC7413516, “Antidepressant-like activity and safety profile evaluation of 1H-imidazo[2,1-f]purine-2,4(3H,8H)-dione derivatives as 5-HT1A receptor partial agonists” (PLoS ONE, 2020):
Several values for one entry are separate records, joined by “and”; a condition that tells them apart may be missing. Equal values may be shown once.

Key:
PDE10A = tested on: PDE10A; design: method as in PMID 27353547; details: in vitro, bioluminescent detection system; ref [8]; cited from earlier work
[1] = target: T1, histaminic H1 receptor (H1R) (Cavia porcellus, UniProt P31389); assay: Smooth muscle relaxant assay: histamine-induced contraction of isolated guinea pig ileum; details: isolated guinea pig small intestine, histamine 2 μM
T1 construct: from tissue; host or cells: isolated guinea pig ileum
Procedure: (§1) The experiment was carried out according to the method described previously. Male guinea pigs were sacrificed by cervical dislocation. The ileum was rapidly removed, rinsed, and cut into segments of 1.5–2.0 cm length. The tissues were mounted on a jacketed 20 mL organ bath (Tissue Organ Bath System; 750 TOBS, DMT, Denmark) filled with Krebs’s solution (NaCl 120 mM, KCl 5.6 mM, MgCl2 2.2 mM, CaCl2 2.4 mM, NaHCO3 19 mM, glucose 10 mM). The bath was aerated with 95 % O2/5 % CO2 and heated at 37°C. During the 60-min incubation period, the organ was rinsed 4 times with fresh Krebs’s buffer, and the tissues were also pre-stimulated by 60 mM KCl solution. The submaximal contraction induced by histamine (Sigma Aldrich) (2 μM) and carbachol (Sigma Aldrich) (100 μM) was evaluated in the presence and absence of the tested compounds. Amplitudes of contraction values were measured in 4 independent experiments.

5-HT1AR = tested on: 5-HT1AR; design: method as in PMID 27353547; details: CHO-K1 cells, Ca2+ mobilisation; ref [8]; read-out: Kb, 5-HT1AR antagonist; cited from earlier work
[2] = target: serotonergic 5-HT1A receptor (5-HT1AR); design: method as in PMID 27353547; details: ref [8]; cited from earlier work
[3] = target: T2, muscarinic M3 receptor (M3R) (Cavia porcellus, UniProt H0W1Z3); assay: Smooth muscle relaxant assay: carbachol-induced contraction of isolated guinea pig ileum; details: isolated guinea pig small intestine, carbachol 100 μM
T2 construct: from tissue; host or cells: isolated guinea pig ileum
Procedure: as §1

human serotonin 5-HT1AR = target: T3, human serotonin 5-HT1AR (Homo sapiens, UniProt P08908); assay: cAMP inhibition (LANCE Ultra cAMP, forskolin-stimulated CHO-K1 cells)
T3 sequence (P08908 1-422): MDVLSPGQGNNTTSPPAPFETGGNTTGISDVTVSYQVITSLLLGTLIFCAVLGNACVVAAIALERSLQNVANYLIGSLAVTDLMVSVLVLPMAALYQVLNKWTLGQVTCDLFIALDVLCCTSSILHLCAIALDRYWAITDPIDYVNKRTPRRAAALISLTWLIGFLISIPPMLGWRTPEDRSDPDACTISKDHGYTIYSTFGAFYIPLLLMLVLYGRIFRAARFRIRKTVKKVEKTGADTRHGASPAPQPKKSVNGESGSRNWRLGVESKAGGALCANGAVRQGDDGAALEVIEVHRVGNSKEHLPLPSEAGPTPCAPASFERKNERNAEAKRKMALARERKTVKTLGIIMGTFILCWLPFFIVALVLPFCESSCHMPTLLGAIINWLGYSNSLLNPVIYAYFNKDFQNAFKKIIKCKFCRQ
Procedure: CHO-K1 cell line transfected with 5-HT1A receptor, were commercially obtained from Perkin Elmer (Cat. No. ES-310-C, Lot Number M2W-C1). Cells were cultured according to manufacturer’s instruction.
The cells were cultured under selective conditions (400 μg/mL Geneticin G418). Thawed cells were resuspended in stimulation buffer (HBSS, 5 mM HEPES, 0.5 IBMX, and 0.1% BSA at pH 7.4) at 2 × 10^5 cells/mL. The same volume (10 μL) of cell suspension was added to tested compounds with 10 μM forskolin. Cell stimulation was performed for 40 min at room temperature. After incubation, cAMP measurements were performed with homogeneous TR-FRET immunoassay using the LANCE Ultra cAMP kit (PerkinElmer, USA) according to the manufacturer’s instruction (PerkinElmer). The TR-FRET signal was read on an EnVision microplate reader (PerkinElmer, USA).

[4] = tested on: adrenergic α1 receptors (α1R); assay: Pressor response to methoxamine in anesthetized normotensive rats (adrenolytic activity); assay type: in vivo, Wistar rats; details: 10 mg/kg
Procedure: In a separate series of experiments on anesthetized normotensive rats, the effect of studied compounds on the pressor response to methoxamine (Sigma Aldrich) (150 μg/kg) was investigated. Pressor responses to methoxamine injected intravenously were measured before and 30 min after the administration of the tested compound. The amplitudes of the pressure values were measured in 4 independent experiments.

normotensive rats = assay: Blood pressure measurement in normotensive anesthetized rats; assay type: in vivo, Wistar rats; details: for DBP Mean / SBP Mean: group mean; for DBP / SBP: individual rat
Procedure: Male Wistar normotensive rats were anesthetized with thiopental (50–75 mg/kg, i.p.). The right carotid artery was cannulated with a polyethylene tube filled with heparin in saline to facilitate pressure measurement using the Datamax apparatus (Columbus Instruments, Columbus, Ohio, USA). The studied compounds were administered after a 15-min stabilization period.

T1 sequence (P31389 whole entry): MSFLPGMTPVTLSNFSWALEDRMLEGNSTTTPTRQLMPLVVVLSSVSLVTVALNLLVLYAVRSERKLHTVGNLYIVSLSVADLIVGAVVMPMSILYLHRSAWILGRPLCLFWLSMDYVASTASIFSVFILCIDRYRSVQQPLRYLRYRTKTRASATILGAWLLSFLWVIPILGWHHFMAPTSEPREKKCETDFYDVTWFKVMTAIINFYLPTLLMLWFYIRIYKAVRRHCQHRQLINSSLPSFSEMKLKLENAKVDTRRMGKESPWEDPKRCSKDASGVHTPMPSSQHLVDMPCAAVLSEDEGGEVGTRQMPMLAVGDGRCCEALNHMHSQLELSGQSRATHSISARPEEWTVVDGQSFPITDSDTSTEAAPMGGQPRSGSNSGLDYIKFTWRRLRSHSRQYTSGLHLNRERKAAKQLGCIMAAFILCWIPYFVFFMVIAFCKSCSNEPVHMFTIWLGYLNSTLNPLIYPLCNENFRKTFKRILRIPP
T2 sequence (H0W1Z3 1-590): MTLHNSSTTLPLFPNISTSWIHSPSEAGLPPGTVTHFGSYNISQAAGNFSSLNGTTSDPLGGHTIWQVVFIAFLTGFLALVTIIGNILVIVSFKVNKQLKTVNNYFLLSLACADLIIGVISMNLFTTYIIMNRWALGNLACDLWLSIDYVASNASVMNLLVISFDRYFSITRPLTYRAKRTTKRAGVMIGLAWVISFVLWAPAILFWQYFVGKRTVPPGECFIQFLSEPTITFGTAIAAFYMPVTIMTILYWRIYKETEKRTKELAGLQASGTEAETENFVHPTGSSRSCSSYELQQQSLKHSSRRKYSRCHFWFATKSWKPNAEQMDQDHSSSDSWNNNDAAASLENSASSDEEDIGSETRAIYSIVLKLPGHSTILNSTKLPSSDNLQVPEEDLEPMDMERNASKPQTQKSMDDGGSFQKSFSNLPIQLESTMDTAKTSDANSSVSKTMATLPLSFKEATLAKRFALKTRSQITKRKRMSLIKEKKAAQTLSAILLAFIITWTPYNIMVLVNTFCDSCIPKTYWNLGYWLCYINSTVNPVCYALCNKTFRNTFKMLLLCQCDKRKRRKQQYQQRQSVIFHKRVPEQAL

In the case of `Cn1c(=O)c2c(nc3n(CCCCN4CCN(c5cccc(C(F)(F)F)c5)CC4)ccn23)n(C)c1=O` [AZ-861, 1,3-dimethyl-8-(4-(4-(3-(trifluoromethyl)phenyl)piperazin-1-yl)butyl)-1H-imidazo[2,1-f]purine-2,4(3H,8H)-dione], the PDE10A inhibitory activity (PDE10A) is listed as “did not induce PDE4B and PDE10A inhibitory activity”, the inhibition at 1 µM [1] is listed as 99.8% and the Kb (5-HT1AR) is listed as 1.4 nM. For the same molecule, the Ki [2] was 0.2 nM, the inhibition at 1 µM [3] was 0.17% and the EC50 (human serotonin 5-HT1AR) was 4.37 nM. For the same molecule, the Emax (human serotonin 5-HT1AR; CHO-K1, read-out: Emax (%) ± SEM, agonist mode) was 76 ± 1.7%, the “higher potency than 5-HT” value (human serotonin 5-HT1AR; cAMP inhibition) was 2.6 fold and the “lower efficacy than 5-HT” value (human serotonin 5-HT1AR; cAMP inhibition) was 1.3 fold. The “reversal of the effect of methoxamine” value [4] was “approximately 40%”, the “mean reduction of blood pressure vs. methoxamine alone” value ([4]; 30 min prior to methoxamine 150 μg/kg) was 40.45 mmHg and the “effect on arterial pressure” value (normotensive rats; 10 mg/kg) was “did not significantly affect the arterial pressure”. The “DBP Mean” value (normotensive rats; time 0 min) was 86.8 mmHg, the “SBP Mean” value (normotensive rats; time 0 min) was 124.2 mmHg and the DBP (normotensive rats; time 0 min) was 74 mmHg and 91 mmHg and 79 mmHg and 94 mmHg and 89 mmHg. The SBP (normotensive rats; time 0 min) was 113 mmHg and 124 mmHg and 105 mmHg and 134 mmHg and 135 mmHg, the “DBP Mean” value (normotensive rats; time 5 min) was 87.2 mmHg and the “SBP Mean” value (normotensive rats; time 5 min) was 122.2 mmHg. For the same molecule, the DBP (normotensive rats; time 5 min) was 91 mmHg and 76 mmHg and 84 mmHg and 93 mmHg and 98 mmHg and 81 mmHg, the SBP (normotensive rats; time 5 min) was 122 mmHg and 101 mmHg and 119 mmHg and 139 mmHg and 138 mmHg and 114 mmHg and the “DBP Mean” value (normotensive rats; time 10 min) was 86.8 mmHg. For the same molecule, the “SBP Mean” value (normotensive rats; time 10 min) was 122.3 mmHg, the DBP (normotensive rats; time 10 min) was 90 mmHg and 76 mmHg and 87 mmHg and 98 mmHg and 80 mmHg and the SBP (normotensive rats; time 10 min) was 120 mmHg and 102 mmHg and 124 mmHg and 139 mmHg and 136 mmHg and 113 mmHg. For the same molecule, the “DBP Mean” value (normotensive rats; time 15 min) was 86.2 mmHg, the “SBP Mean” value (normotensive rats; time 15 min) was 123.3 mmHg and the DBP (normotensive rats; time 15 min) was 90 mmHg and 77 mmHg and 89 mmHg and 94 mmHg. The SBP (normotensive rats; time 15 min) was 120 mmHg and 103 mmHg and 137 mmHg and 138 mmHg and 131 mmHg and 111 mmHg, the “DBP Mean” value (normotensive rats; time 20 min) was 85.8 mmHg and the “SBP Mean” value (normotensive rats; time 20 min) was 121.8 mmHg. The DBP (normotensive rats; time 20 min) was 89 mmHg and 76 mmHg and 91 mmHg and 87 mmHg and 94 mmHg, the SBP (normotensive rats; time 20 min) was 118 mmHg and 100 mmHg and 138 mmHg and 139 mmHg and 128 mmHg and 109 mmHg and the “DBP Mean” value (normotensive rats; time 30 min) was 86.5 mmHg. For the same molecule, the “SBP Mean” value (normotensive rats; time 30 min) was 124.2 mmHg, the DBP (normotensive rats; time 30 min) was 88 mmHg and 77 mmHg and 93 mmHg and 89 mmHg and 94 mmHg and 74 mmHg and the SBP (normotensive rats; time 30 min) was 119 mmHg and 101 mmHg and 136 mmHg and 139 mmHg and 128 mmHg and 108 mmHg. For the same molecule, the “DBP Mean” value (normotensive rats; time 40 min) was 85.5 mmHg, the “SBP Mean” value (normotensive rats; time 40 min) was 122.0 mmHg and the DBP (normotensive rats; time 40 min) was 88 mmHg and 76 mmHg and 92 mmHg and 95 mmHg and 75 mmHg. For the same molecule, the SBP (normotensive rats; time 40 min) was 122 mmHg and 106 mmHg and 134 mmHg and 136 mmHg and 128 mmHg and 108 mmHg, the “DBP Mean” value (normotensive rats; time 50 min) was 85.7 mmHg and the “SBP Mean” value (normotensive rats; time 50 min) was 122.3 mmHg. For the same molecule, the DBP (normotensive rats; time 50 min) was 96 mmHg and 81 mmHg and 89 mmHg and 84 mmHg and 93 mmHg and 77 mmHg, the SBP (normotensive rats; time 50 min) was 134 mmHg and 110 mmHg and 130 mmHg and 135 mmHg and 125 mmHg and the “DBP Mean” value (normotensive rats; time 60 min) was 86.7 mmHg. The “SBP Mean” value (normotensive rats; time 60 min) was 124.0 mmHg, the DBP (normotensive rats; time 60 min) was 98 mmHg and 83 mmHg and 88 mmHg and 82 mmHg and 93 mmHg and 75 mmHg and the SBP (normotensive rats; time 60 min) was 135 mmHg and 112 mmHg and 129 mmHg and 126 mmHg and 108 mmHg. For the same molecule, the “DBP Mean” value (normotensive rats; time 70 min) was 86.3 mmHg, the “SBP Mean” value (normotensive rats; time 70 min) was 123.7 mmHg and the DBP (normotensive rats; time 70 min) was 96 mmHg and 86 mmHg and 80 mmHg and 93 mmHg and 77 mmHg. The SBP (normotensive rats; time 70 min) was 134 mmHg and 115 mmHg and 127 mmHg and 128 mmHg and 125 mmHg and 113 mmHg, the “DBP Mean” value (normotensive rats; time 80 min) was 86.8 mmHg and the “SBP Mean” value (normotensive rats; time 80 min) was 124.5 mmHg. For the same molecule, the DBP (normotensive rats; time 80 min) was 97 mmHg and 87 mmHg and 86 mmHg and 82 mmHg and 93 mmHg and 76 mmHg and the SBP (normotensive rats; time 80 min) was 134 mmHg and 115 mmHg and 126 mmHg and 131 mmHg and 125 mmHg and 116 mmHg.
